Results reported in publication PMC11763059, “GENI as an AMPK Activator Binds α and γ Subunits and Improves the Memory Dysfunction of Alzheimer’s Disease Mouse Models via Autophagy and Neuroprotection” (Antioxidants, 2025).

Assays:
p53 = tested on: T1, p53; test: Drug affinity responsive target stability (DARTS), p53; type: binding; settings: 0.1–100 μM GENI, protein: pronase 100:1
T1 construct: endogenous in cells
Description: Cells were lysed by RIPA lysis buffer, and the protein concentration was measured. The lysate was divided into six groups. Before incubation with protease (protein: pronase = 50:1 w/w for PI3K and AMPK detection, 5:1 for MAPK detection, 100:1 for p53 detection) for 25 min in 25 °C, 0.1–100 μM GENI was added to lysates and incubated for 2 h at room temperature. The samples were mixed with loading buffer and then separated on 8% SDS-PAGE for immunoblotting analysis.

D-gal-induced AD mice = test: Immunohistochemistry of brain in D-gal-induced AD mice; type: in vivo; settings: compared with the D-gal group
Description: Each group comprised 10 mice. […] Dosing lasted for 10 weeks. […] The mice were sacrificed after 10 weeks of administration.
Firstly, the three mice of each group were subjected to heart perfusion at the end of the animal experiment, and the whole brain was removed and placed in 15 mL of 4% paraformaldehyde and stored at 4 °C for 24 h. Secondly, we changed 4% paraformaldehyde into 15% sucrose solution and stored the solution at 4 °C for 24 h. We then changed the solution to 30% sucrose solution to dehydrate for 2 days. Thirdly, the mouse brain tissue was embedded in a cryo-embedding medium, and about 80 slices with a thickness of 20 μm were cut in the hippocampus using a cryostat (Thermal Fisher, Shanghai, China). The sections of mice in each group were immunohistochemically stained with primary antibodies, such as neuronal nuclear anti gen (NeuN), ionized calcium-binding adapter molecule 1 (Iba-1), inducible nitric oxide synthase (iNOS, pro-inflammatory factors), synaptophysin (Syp), and glial fibrillary acidic protein (GFAP), and secondary antibody. The product number and usage ratios of primary and secondary antibodies are detailed in Supplementary Table S4. Finally, the sections were observed under an upright two-photon confocal microscope (Olympus BX61, Tokyo, Japan) and recorded by a camera. The pictures were digitized with ImageJ software V1.8.0.112 (National Institutes of Health, Bethesda, MD, USA).

[1] = DON 3 mg/kg, GENI 12.5, 25, 50 mg/kg groups

Which results are given for `CC(C)CCOC(=O)C1=CO[C@@H](O[C@@H]2O[C@H](CO)[C@@H](O)[C@H](O)[C@H]2O)C2C(CO)=CCC12` (stereo partly drawn) [GENI, Geniposidic 4-isoamyl ester]?
stability of p53 against pronase (DARTS) (p53): no obvious effect; activation of astrocytes (GFAP) in the cerebral cortex (D-gal-induced AD mice): decreased; activation of microglia (Iba-1) in the cerebral cortex (D-gal-induced AD mice): decreased; expression of iNOS in the cerebral cortex (D-gal-induced AD mice): decreased; Syp intensity in the cerebral cortex (D-gal-induced AD mice; [1]): significantly increased; mature neurons (NeuN) in the cerebral cortex and hippocampus (D-gal-induced AD mice; [1]): significantly increased
